Three compounds from patent US8993591B2, “1,2,4-triazolo[4,3-a] pyridine derivatives and their use as positive allosteric modulators of MGLUR2 receptors” (Janssen Pharmaceuticals, Inc., priority 2010, dated 2015) can be followed below.

The target of this test is T1, human mGluR2 receptor (Homo sapiens, UniProt Q14416).
T1 construct: expressed in transfected cells; host or cells: CHO cells (membranes)
As to the kind of experiment: [35S]GTPγS binding assay, mGluR2 positive allosteric modulation (PAM). As to conditions: membranes from CHO cells transfected with human mGluR2, in presence of glutamate at EC20; for EC50: -log EC50 with EC50 in M, read-out: GTPγS - hmGluR2 PAM pEC50 (converted); for Emax: read-out: GTPγS - hmGluR2 PAM Emax. The format is biochemical. On the procedure: The [^35S]GTPγS binding assay is a functional membrane-based assay used to study G-protein coupled receptor (GPCR) function whereby incorporation of a non-hydrolysable form of GTP, [^35S]GTPγS (guanosine 5′-triphosphate, labelled with […] ^35S), is measured. The G-protein α subunit catalyzes the exchange of guanosine 5′-diphosphate (GDP) by guanosine triphosphate (GTP) and on activation of the GPCR by an agonist, [^35S]GTPγS, becomes incorporated and cannot be cleaved to continue the exchange cycle (Harper (1998) Current Protocols in Pharmacology 2.6.1-10, John Wiley & Sons, Inc.). […] Here we describe the use of the [^35S]GTPγS binding assay using membranes from cells transfected with the human mGluR2 receptor and adapted from Schaffhauser et al. ((2003) Molecular Pharmacology 4:798-810) for the detection of the positive allosteric modulation (PAM) properties of the compounds of this invention.
CHO-cells were cultured to pre-confluence and stimulated with 5 mM butyrate for 24 h. Cells were then collected by scraping in PBS and cell suspension was centrifuged (10 min at 4000 RPM in benchtop centrifuge). Supernatant was discarded and pellet gently resuspended in 50 mM Tris-HCl, pH 7.4 by mixing with a vortex and pipetting up and down. The suspension was centrifuged at 16,000 RPM (Sorvall RC-5C plus rotor SS-34) for 10 minutes and the supernatant discarded. The pellet was homogenized in 5 mM Tris-HCl, pH 7.4 using an ultra-turrax homogenizer and centrifuged again (18,000 RPM, 20 min, 4° C.). The final pellet was resuspended in 50 mM Tris-HCl, pH 7.4 and stored at −80° C. in appropriate aliquots before use. Protein concentration was determined by the Bradford method (Bio-Rad, USA) with bovine serum albumin as standard.
Measurement of mGluR2 positive allosteric modulatory activity of test compounds was performed as follows. Test compounds and glutamate were diluted in assay buffer containing 10 mM HEPES acid, 10 mM HEPES salt, pH 7.4, 100 mM NaCl, 3 mM MgCl2 and 10 μM GDP. Human mGlu2 receptor-containing membranes were thawed on ice and diluted in assay buffer supplemented with 14 μg/ml saponin. Membranes were pre-incubated with compound alone or together with a predefined (˜EC20) concentration of glutamate (PAM assay) for 30 min at 30° C. After addition of [^35S]GTPγS (f.c. 0.1 nM), assay mixtures were shaken briefly and further incubated to allow [^35S]GTPγS incorporation on activation (30 minutes, 30° C.). Final assay mixtures contained 7 μg of membrane protein in 10 mM HEPES acid, 10 mM HEPES salt, pH 7.4, 100 mM NaCl, 3 mM MgCl2, 10 μM GDP and 10 μg/ml saponin. Total reaction volume was 200 μl. Reactions were terminated by rapid filtration through Unifilter-96 GF/B plates (Perkin Elmer, Mass., USA) using a 96-well filtermate universal harvester. Filters were washed 6 times with ice-cold 10 mM NaH2PO4/10 mM Na2HPO4, pH 7.4. Filters were then air-dried, and 40 μl of liquid scintillation cocktail (Microscint-O) was added to each well. Membrane-bound radioactivity was counted in a Microplate Scintillation and Luminescence Counter from Perkin Elmer.
The concentration-response curves of representative compounds of the present invention-obtained in the presence of EC20 of mGluR2 agonist glutamate to determine positive allosteric modulation (PAM)-were generated using the Lexis software interface (developed at J&J).

Setting [1] is: maximal % effect relative to the control glutamate response.

T1 sequence (Q14416 19-872): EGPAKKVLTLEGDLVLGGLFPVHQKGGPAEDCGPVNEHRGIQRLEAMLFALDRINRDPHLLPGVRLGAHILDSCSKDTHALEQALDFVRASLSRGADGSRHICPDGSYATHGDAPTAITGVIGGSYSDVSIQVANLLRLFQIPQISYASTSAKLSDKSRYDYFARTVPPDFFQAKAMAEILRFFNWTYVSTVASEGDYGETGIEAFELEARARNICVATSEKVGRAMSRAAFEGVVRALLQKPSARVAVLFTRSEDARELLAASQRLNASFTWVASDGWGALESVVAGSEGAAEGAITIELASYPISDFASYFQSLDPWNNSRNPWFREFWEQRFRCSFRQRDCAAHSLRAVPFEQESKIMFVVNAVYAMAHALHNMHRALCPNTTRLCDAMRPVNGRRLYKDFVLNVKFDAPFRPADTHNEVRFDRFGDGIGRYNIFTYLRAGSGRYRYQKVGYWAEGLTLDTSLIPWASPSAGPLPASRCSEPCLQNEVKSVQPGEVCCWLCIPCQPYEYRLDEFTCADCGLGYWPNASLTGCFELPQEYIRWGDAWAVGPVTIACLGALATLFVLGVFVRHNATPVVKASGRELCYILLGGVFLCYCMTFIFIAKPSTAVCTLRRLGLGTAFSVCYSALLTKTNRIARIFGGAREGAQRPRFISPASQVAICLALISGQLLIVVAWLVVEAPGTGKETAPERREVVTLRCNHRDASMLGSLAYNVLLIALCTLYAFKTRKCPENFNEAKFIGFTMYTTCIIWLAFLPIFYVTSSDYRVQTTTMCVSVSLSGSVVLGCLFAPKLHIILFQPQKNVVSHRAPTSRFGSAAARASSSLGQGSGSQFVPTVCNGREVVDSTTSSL

For the compound `Fc1ccc(C2CN(Cc3ccn4c(CC5CC5)nnc4c3C(F)(F)F)CCN2)c(F)c1` (single isomer, unassigned) [Compound 19b, 3-(Cyclopropylmethyl)-7-{[(3*S)-3-(2,4-difluorophenyl)piperazin-1-yl]methyl}-8-(trifluoromethyl)[1,2,4]triazolo[4,3-a]pyridine], the EC50 is 468 nM. For the same compound, the “GTPγS - hmGluR2 PAM Emax” value under setting [1] was determined as 279%.
As to `FC(F)(F)c1c(CN2CCO[C@H](c3ccccc3)C2)ccn2c(CC3CC3)nnc12` [Compound 2, 3-(Cyclopropylmethyl)-7-[[(2R)-2-phenyl-4-morpholinyl]methyl]-8-(trifluoromethyl)-1,2,4-triazolo[4,3-a]pyridine], the EC50 is 871 nM. Further, the Emax under setting [1] was found to be 267%.
Consider `FC(F)(F)c1c(CN2CCO[C@@H](c3ccccc3)C2)ccn2c(CC3CC3)nnc12` [Compound 4, 3-(Cyclopropylmethyl)-7-[[(2S)-2-phenyl-4-morpholinyl]methyl]-8-(trifluoromethyl)-1,2,4-triazolo[4,3-c]pyridine], for which the EC50 is 324 nM. The Emax under setting [1] amounted to 294%.

One may read the Emax as the greatest response seen or fitted, relative to the assay's reference.
